Assay results taken from EP0140270A2 (priority 1983, dated 1985).
Read-outs that look alike come from different tables or passages of the source.

Experiments:
Type in all cases: in vivo
[1] = test system: Pyricularia oryzae; details: systemic; 40 ml preparation poured on soil of young rice plants; inoculated 7 days after treatment; evaluated 4 days after inoculation; compared with prior art (Zinkethylen-1,2-bis-dithiocarbamat)
[2] = test system: Pyricularia oryzae; details: protective; young rice plants sprayed to dripping wet, then inoculated; evaluated 4 days after inoculation; compared with prior art (Zinkethylen-1,2-bis-dithiocarbamat)
[3] = test system: Phytophthora infestans; details: curative; young tomato plants inoculated, sprayed after 7 hours incubation; evaluated 3 days after inoculation; compared with prior art (Zinkethylen-1,2-bis-dithiocarbamat)

Row | SMILES | Wirksamkeit (Krankheitsbefall) [1] | Wirksamkeit (Krankheitsbefall) [2] | Wirksamkeit [3]
1 | C#CC(C)(C)C(C(=O)OC)C(=O)OC [Beispiel 1, 3,3-Dimethyl-2-methoxycarbcnyL-pent-4-insäuremethylester] | deutliche Überlegenheit in der Wirksamkeit gegenüber dem Stand der Technik | – | –
2 | C#CC(C)(C)C(C(N)=O)C(=O)OCC (centres unmarked) [Beispiel 3, 3,3-Dimethyl-2-etrcry-carbonyl-pent-4-insaureamid] | – | deutliche Überlegenheit in der Wirksamkeit gegenüber dem Stand der Technik | deutliche Überlegenheit in der Wirksamkeit gegenüber dem Stand der Technik
3 | C#CC(C)(C)C(C(=O)O)C(=O)OCC (centres unmarked) [Beispiel 2, 3,3-Dimethyl-2-ethoxycarbonyl-pent-4-insäure] | deutliche Überlegenheit in der Wirksamkeit gegenüber dem Stand der Technik | deutliche Überlegenheit in der Wirksamkeit gegenüber dem Stand der Technik | –
4 | CCOC(=O)CC(C)(C)C#CC(=O)OCCI [Beispiel 4, 3,3-DimethyL-5-iodethoxycarbonyl-pent-4-insäureethylester] | deutliche Überlegenheit in der Wirksamkeit gegenüber dem Stand der Technik | deutliche Überlegenheit in der Wirksamkeit gegenüber dem Stand der Technik | –
5 | C#CC(C)(C)C(C(=O)OCC)C(=O)OCC [Beispiel 20, 3,3-Dimethyl-2-ethoxycarbonyl-pent-4-insäureethylester] | deutliche Überlegenheit in der Wirksamkeit gegenüber dem Stand der Technik | – | –
